Test results published in publication PMC4268798, “Acetylcholinesterase of the sand fly, Phlebotomus papatasi (Scopoli): construction, expression and biochemical properties of the G119S orthologous mutant” (Parasites & Vectors, 2014).

Columns and labels:
rPpAChE1 = biological target: T1, rPpAChE1 (Phlebotomus papatasi, UniProt M1F887); assay: biochemical
T1 construct: gene AChE; cell lysate assayed

CC(=O)SCC[N+](C)(C)C = assay: modified Ellman assay; assay type: biochemical, Phlebotomus papatasi

Compound	IC50 (rPpAChE1) [nM]	Km (CC(=O)SCC[N+](C)(C)C) [µM]
CNC(=O)Oc1cccc2c1OC(C)(C)C2 [Carbofuran]	24	–
CNC(=O)Oc1ccc2c(c1)[C@]1(C)CCN(C)[C@@H]1N2C [Eserine]	3.2	–
CC[n+]1c(-c2ccccc2)c2cc(N)ccc2c2ccc(N)cc21 [Ethidium Bromide]	17100	–
CCOC(=O)CC(SP(=O)(OC)OC)C(=O)OCC (stereo not drawn) [Malaoxon]	4.36	–
CNC(=O)Oc1ccccc1OC(C)C [Propoxur]	220	–
Nc1c2c(nc3ccccc13)CCCC2 [Tacrine]	67	–
COc1cc2c3cc1Oc1cc(ccc1O)C[C@@H]1c4c(cc(OC)c(O)c4Oc4ccc(cc4)C[C@@H]3N(C)CC2)CC[N+]1(C)C [Tubocurarine]	143000	–
CNC(=O)Oc1cccc(C(C)(C)C)c1 [compound 2, 3-(tert-butyl)phenyl methylcarbamate]	36	–
CCC(C)n1cc(OC(=O)NC)cn1 (stereo not drawn) [compound 3, 1-(sec-butyl)-1H-pyrazol-4-yl methylcarbamate]	13	–
CNC(=O)Oc1cnn(CCC(C)C)c1 [compound 4, 1-isopentyl-1H-pyrazole-4-yl methylcarbamate]	75	–
CNC(=O)Oc1cnn(CC(C)C)c1 [compound 5, 1-isobutyl-1H-pyrazol-4-yl methylcarbamate]	76	–
rPpAChE1 (Phlebotomus papatasi)	–	24
